# Earlier results, collected in patent US20060063833A1, “Ready-to-use oxaliplatin solutions” (priority 2004, published 2006).
# What was measured:
# [1] = at least at concentrations below 1 mg/ml
smiles,measurement,setting,value
"O=C1[O][Pt-2]2([NH2+]C3CCCC[C@H]3[NH2+]2)[O]C1=O (stereo partly drawn) [Oxaliplatin, cis-oxalato-(trans-1,2-cyclohexanediamine)-platinum(II)]",solubility in ethanol,ethanol,practically insoluble
same,solubility in methanol,methanol,scarcely soluble
same,solubility in water,water,soluble
same,stability in water,[1],not very stable
